From patent US5252601A, “2-mercaptomethylene-tetrahydronaphthalene and indane-2-carboxamide derivatives as enkephalinase inhibitors” (Merrell Dow Pharmaceuticals Inc., priority 1992, dated 1993)
Read-outs that look alike come from different tables or passages of the source.

Experiments:
Enkephalinase = biological target: T1, Enkephalinase (Rattus norvegicus, UniProt P07861); test: Enkephalinase inhibition, fluorometric assay with dansyl-D-AlaGly(p-nitro)PheGly substrate; assay type: biochemical; details: 50 mM HEPES pH 7.4, 25° C.; for Ki: enzyme partially purified from rat kidney, 12 μM substrate
T1 construct: Enkephalinase is partially purified from rat kidney; from tissue; host or cells: rat kidney, microvilli fraction (Triton X-100 extract or proteolytic treatment, then Mono Q anion exchange)
T1 sequence (P07861 1-750): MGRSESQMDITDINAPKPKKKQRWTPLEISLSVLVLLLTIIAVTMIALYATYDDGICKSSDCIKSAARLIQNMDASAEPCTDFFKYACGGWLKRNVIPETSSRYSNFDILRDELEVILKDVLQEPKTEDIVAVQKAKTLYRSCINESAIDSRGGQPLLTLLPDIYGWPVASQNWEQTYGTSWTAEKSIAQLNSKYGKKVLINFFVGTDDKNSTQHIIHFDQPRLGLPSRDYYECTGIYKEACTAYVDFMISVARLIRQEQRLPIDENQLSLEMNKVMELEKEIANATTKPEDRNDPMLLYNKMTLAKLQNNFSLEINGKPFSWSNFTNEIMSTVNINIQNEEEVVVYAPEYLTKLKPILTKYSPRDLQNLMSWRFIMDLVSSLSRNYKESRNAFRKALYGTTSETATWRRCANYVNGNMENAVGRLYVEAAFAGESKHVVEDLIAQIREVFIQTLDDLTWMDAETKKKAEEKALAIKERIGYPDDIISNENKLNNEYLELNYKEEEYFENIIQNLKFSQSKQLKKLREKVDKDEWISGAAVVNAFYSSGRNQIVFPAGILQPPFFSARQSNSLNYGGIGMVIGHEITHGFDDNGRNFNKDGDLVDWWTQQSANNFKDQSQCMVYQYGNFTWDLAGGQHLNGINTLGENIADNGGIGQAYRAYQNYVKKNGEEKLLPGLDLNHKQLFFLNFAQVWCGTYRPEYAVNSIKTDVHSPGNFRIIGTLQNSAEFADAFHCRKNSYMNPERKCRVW
Excerpt: Enkephalinase is partially purified from rat kidney. The enzyme is extracted from the microvilli fraction by using Triton X-100 according to the method of Malfroy and Schwartz [J. Biol. Chem. 259, 14365-14370 (1984)] or by using a proteolytic treatment according to the method of Almenoff and Orlowski [Biochem. 22, 590-599 (1983)]. The enzyme is further purified by anion exchange chromatography (Mono QTM column, Pharmacia) using a Pharmacia FPLC system. The enzyme activity may be measured by the fluorometric methods of Florentin et al. [Anal. Biochem. 141, 62-69 (1984)] or of Almenoff and Orlowski [J. Neurochemistry 42, 151-157 (1984)]. […] The substrate (and inhibitor) is added from a concentrated stock solution in DMSO (up to […] DMSO final volume). The enzyme in a small volume (approximately 0.1 μg of FPLC purified protein) is added to initiate the reaction and the rate of fluorecense increase is recorded continuously using a fluorometer (excitation at 339 nm, emission at 562 nm).

[1] = system: specific binding sites in various tissues including kidney, adrenal, aorta, and vascular smooth muscle; details: Needleman, Hypertension 7, 469 (1985), cited from earlier work

| Ki (Enkephalinase) [nM] | Compound | further results |
| --- | --- | --- |
| 0.6 | O=C(N[C@H]1CC[C@@H](C(=O)O)CC1)C1(CS)CCc2ccccc2C1 (relative stereo) [100,552, 4-[[[1,2,3,4-Tetrahydro-2-(mercarptomethyl)-2-naphthalenyl]carbonyl]amino]- cis-cyclohexanecarboxylic acid] | – |
| 2 | CC(C)[C@H](NC(=O)C1(CS)CCc2ccccc2C1)C(=O)O (stereo partly drawn) [101,782, N-[[1,2,3,4-Tetrahydro-2-(mercarptomethyl)-2-naphthalenyl]carbonyl]-L-valine] | – |
| 0.3 | C[C@H](NC(=O)C1(CS)CCc2ccccc2C1)C(=O)O (stereo partly drawn) [101,890, N-[[1,2,3,4-Tetrahydro-2-(mercarptomethyl)-2-naphthalenyl]carbonyl]-L-alanine] | – |

Second part, the compound before the results:

| Compound | Ki (Enkephalinase) [nM] | further results |
| --- | --- | --- |
| dansyl-D-AlaGly(p-nitro)PheGly [reference compound] | – | Km (Enkephalinase; substrate of the assay): 40 µM |
| O=C(O)CCNC(=O)C1(CS)CCc2ccccc2C1 (stereo not drawn) [100,185, N-[[1,2,3,4-Tetrahydro-2-(mercarptomethyl)-2-naphthalenyl]carbonyl]-β-alanine] | ≤ 0.2 | – |
| ANP: family of naturally-occurring peptides which are involved in the homeostatic regulation of blood pressure, as well as sodium and water levels | – | Kd ([1]; affinities ranging from about, read-out: affinity (lower end of range)): ≥ 0.05 nM; Kd ([1]; affinities ranging to about, read-out: affinity (upper end of range)): ≤ 500 nM |
| O=C(O)CNC(=O)C1(CS)CCc2ccccc2C1 (centres unmarked) [100,250, N-[[1,2,3,4-Tetrahydro-2-(mercarptomethyl)-2-naphthalenyl]carbonyl]-glycine] | 0.4 | – |
